For assay [1], the system named is Human alphaherpesvirus 2. Put plainly: Cytotoxicity in herpes simplex virus type 2 (HSV-2). It is filed as functional.
The subject of assay [2] is Human alphaherpesvirus 2. Briefly: Cytotoxicity against herpes simplex virus type 2 (HSV-2) infected cells by pulse chase (PC) assay. It counts as functional.
For the next assay, the system named is Human alphaherpesvirus 3. Put plainly: Inactivation rate against Varicella Zoster Virus (VZV) was determined. It is filed as functional.
Assay [3] concerns the target T1, Capsid scaffolding protein (Human herpesvirus 2 (strain HG52) (HHV-2) (Human herpes simplex virus2), UniProt P89449).
T1 sequence (P89449 whole entry): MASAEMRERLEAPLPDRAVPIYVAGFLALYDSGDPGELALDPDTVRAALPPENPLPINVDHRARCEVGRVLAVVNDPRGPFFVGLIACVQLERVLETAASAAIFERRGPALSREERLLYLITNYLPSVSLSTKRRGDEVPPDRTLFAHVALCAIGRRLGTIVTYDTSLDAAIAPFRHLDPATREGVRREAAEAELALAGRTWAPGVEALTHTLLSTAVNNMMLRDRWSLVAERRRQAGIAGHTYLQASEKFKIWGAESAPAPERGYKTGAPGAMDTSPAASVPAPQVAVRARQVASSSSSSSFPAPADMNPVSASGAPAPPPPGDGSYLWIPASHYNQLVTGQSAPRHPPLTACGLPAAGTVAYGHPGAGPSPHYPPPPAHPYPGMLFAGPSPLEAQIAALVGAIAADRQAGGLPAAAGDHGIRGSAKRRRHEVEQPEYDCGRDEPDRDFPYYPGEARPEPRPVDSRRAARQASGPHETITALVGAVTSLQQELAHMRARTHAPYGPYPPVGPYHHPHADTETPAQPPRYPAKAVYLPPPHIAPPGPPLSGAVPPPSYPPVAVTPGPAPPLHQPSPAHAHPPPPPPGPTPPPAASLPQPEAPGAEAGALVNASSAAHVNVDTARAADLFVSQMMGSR
Put plainly: Inhibitory activity against herpes simplex virus type 2 (HSV-2) protease was determined using quenched fluorescence assay.

The test system of assay [4] is Human alphaherpesvirus 2. Put plainly: Inactivation rate against herpes simplex type 2 (HSV-2) was determined. It is filed as functional.
Another assay has as its system MRC5. Briefly: Cytotoxicity by using MRC-5 cell culture assay (XTT). The note with it: Homo sapiens, read-out: TC50 (the source's name). It is filed as functional.
For assay [5], the system named is Human alphaherpesvirus 2. Briefly: Cytotoxicity in herpes simplex virus type 2 (HSV-2); NI= no inhibition. It is filed as functional, organism-based.
Assay [6] deals with Cytomegalovirus. Briefly: Inhibitory activity against cytomegalovirus (CMV) herpes was determined using quenched fluorescence assay. It is filed as functional, organism-based. The conditions noted are these: Human betaherpesvirus 5.
Assay [7] concerns Human alphaherpesvirus 2. Briefly: Cytotoxicity against herpes simplex virus type 2 (HSV-2). It is filed as functional.
For assay [8], the system named is Cytomegalovirus. Briefly: Inhibitory activity against cytomegalovirus (CMV) herpes protease was determined using quenched fluorescence assay. It counts as functional, organism-based. The conditions noted are these: Human betaherpesvirus 5.
Assay [9] concerns Human alphaherpesvirus 2. Put plainly: Inhibitory activity against herpes simplex virus type 2 (HSV-2) herpes protease was determined using quenched fluorescence assay. It counts as functional, organism-based.
For assay [10], the system named is Human alphaherpesvirus 2. Briefly: Inhibitory activity against herpes simplex virus type 2 (HSV-2) protease was determined using quenched fluorescence assay (IA=inactive up to 20 uM). It is filed as functional, organism-based.
In assay [11] the test system is Cytomegalovirus. Briefly: Inhibitory activity against cytomegalovirus (CMV) protease was determined using quenched fluorescence assay (IA=inactive up to 20 uM). It counts as functional, organism-based.
Assay [12] has as its system Varicella zoster virus protease (Varicella-zoster virus). Briefly: Inhibitory activity against Varicella Zoster Virus (VZV) protease was determined using quenched fluorescence assay (IA=inactive up to 20 uM).

Calls of active or inactive are those of the source. No cut-off for these calls is given here.

In the assay with Human alphaherpesvirus 2 [1], `Cc1cc(/C=C/C(=O)N[C@@H](C)c2nc3scc(C)c3c(=O)o2)c(C)s1` showed a PC50 of 12 µM. The compound also yielded a TC50 in the assay on Human alphaherpesvirus 2 [2] of 130000 nM. Besides, the “k obs / 1” value with Human alphaherpesvirus 3 was 76000 M⁻¹ s⁻¹. In assay [3], this compound had an IC50 of 190 nM. In addition, the “K obs / 1” value in the assay with Human alphaherpesvirus 2 [4] came to 53000 M⁻¹ s⁻¹. For the same compound, in the assay on MRC5, the CC50 stood at 180000 nM.
Turning to `Cc1csc2nc([C@H](C)NC(=O)/C=C/c3ccsc3Br)oc(=O)c12`, the IC50 in assay [3] amounted to 200 nM.
Take `Cc1csc2nc([C@H](C)NC(=O)/C=C/c3ccc([N+](=O)[O-])cc3)oc(=O)c12`: 940 nM corresponded to half-maximal inhibition in [3] (IC50).
Same read-out and setting: with `Cc1csc2nc([C@H](C)NC(=O)/C=C/c3ccc(Br)o3)oc(=O)c12` the figure was 490 nM.
For the compound `Cc1csc2nc([C@H](C)NC(=O)/C=C/c3ccc(O)cc3Cl)oc(=O)c12`, the PC50 entry in the assay on Human alphaherpesvirus 2 [5] was “inactive”. Besides, the IC50 came out at 190 nM with Cytomegalovirus [6] and 230 nM in assay [3]. Moreover, the TC50 with Human alphaherpesvirus 2 [2] was 56000 nM. The CC50 with MRC5 came out at 100000 nM.
In [3], `Cc1csc2nc([C@H](C)NC(=O)/C=C/c3cccc(Cl)c3)oc(=O)c12` showed an IC50 of 980 nM.
On the same count and under the same terms, as for `Cc1ccc(/C=C/C(=O)N[C@@H](C)c2nc3scc(C)c3c(=O)o2)s1`, the figure is 650 nM.
In the assay on Human alphaherpesvirus 2 [7], `Cc1csc2nc([C@H](C)NC(=O)/C=C/c3ccccc3)oc(=O)c12` yielded a PC50 of 7.5 µM. Also, in the assay with Human alphaherpesvirus 2 [2], the TC50 is over 250000 nM. For the same compound, the “K obs / 1” value in the assay on Human alphaherpesvirus 3 was determined as 44000 M⁻¹ s⁻¹; in the assay with Human alphaherpesvirus 2 [4], 65000 M⁻¹ s⁻¹. The IC50 in assay [3] turned out to be 300 nM. Further, the CC50 in the assay with MRC5 came to 56000 nM.
In turn, `Cc1csc2nc([C@H](C)NC(=O)/C=C/c3cc(Br)cs3)oc(=O)c12` yielded an IC50 in [3] of 190 nM. In other words, the sub-micromolar range.
On the same count and under the same terms, as for `COc1cccc(OC)c1/C=C/C(=O)N[C@@H](C)c1nc2scc(C)c2c(=O)o1`, the figure is 1300 nM.
For `Cc1csc2nc([C@H](C)NC(=O)C=C(c3cccs3)c3cccs3)oc(=O)c12`, the PC50 entry in the assay on Human alphaherpesvirus 2 [5] is “inactive”. Moreover, in the assay on Human alphaherpesvirus 2 [2], the TC50 was 21000 nM. In addition, the IC50 in assay [3] is 110 nM. The “K obs / 1” value with Human alphaherpesvirus 2 [4] stood at 120000 M⁻¹ s⁻¹. Besides, in the assay with MRC5, the CC50 amounted to 95000 nM.
Take `Cc1csc2nc([C@H](C)NC(=O)/C=C/c3c(Cl)cccc3Cl)oc(=O)c12`: the “K obs / 1” value in the assay with Human alphaherpesvirus 3 and in the assay on Human alphaherpesvirus 2 [4] was 33000 M⁻¹ s⁻¹ each time. This compound had an IC50 in assay [3] of 1970 nM.
Turning to `Cc1csc2nc([C@H](C)NC(=O)/C=C/c3c(F)cccc3Cl)oc(=O)c12`, in assay [3], inhibition was half-maximal at 520 nM (IC50).
Same read-out and setting: with `Cc1csc2nc([C@H](C)NC(=O)/C=C/c3ccc([N+](=O)[O-])s3)oc(=O)c12` the figure was 570 nM.
For the compound `Cc1csc2nc([C@H](C)NC(=O)/C=C/c3ccc(Cl)s3)oc(=O)c12`, the PC50 in the assay with Human alphaherpesvirus 2 [1] was 18 µM. The TC50 with Human alphaherpesvirus 2 [2] is over 250000 nM. The “K obs / 1” value in the assay on Human alphaherpesvirus 3 came out at 60000 M⁻¹ s⁻¹; with Human alphaherpesvirus 2 [4], 58000 M⁻¹ s⁻¹. This compound also came in with an IC50 in assay [3] of 210 nM. For the same compound, the CC50 with MRC5 is 130000 nM.
Take `Cc1csc2nc([C@H](C)NC(=O)/C=C/c3cccn3C)oc(=O)c12`: the half-inhibitory concentration (IC50) in assay [3] stood at 1000 nM.
Still for that read-out and setting: as for `Cc1csc2nc([C@H](C)NC(=O)/C=C/c3sccc3Br)oc(=O)c12`, the figure is 250 nM.
Take `Cc1csc2nc([C@H](C)NC(=O)/C=C/c3ccsc3)oc(=O)c12`: the results for the IC50 (in the assay on Cytomegalovirus [6]; in assay [3]) were 380 nM and 330 nM, respectively.
On to `COc1cc(/C=C/C(=O)N[C@@H](C)c2nc3scc(C)c3c(=O)o2)cc(OC)c1`, for which, in assay [3], the midpoint of inhibition, the IC50, lay at 350 nM.
Take `Cc1csc2nc([C@H](C)NC(=O)/C=C(\Sc3ccccc3)c3ccccc3)oc(=O)c12`: the IC50 is 1900 nM in the assay on Cytomegalovirus [8] and 3100 nM in the assay with Human alphaherpesvirus 2 [9].
Take `Cc1csc2nc([C@H](C)NC(=O)/C=C/c3ccc(C=O)cc3)oc(=O)c12`: inhibition in assay [3] was half-maximal at 530 nM (IC50). That is a sub-micromolar value.
As to `Cc1csc2nc([C@H](C)NC(=O)/C=C/c3ccc(N(C)C)cc3)oc(=O)c12`, in [3], 570 nM corresponded to half-maximal inhibition (IC50).
The same measure, in the same setting: with `Cc1ccsc1/C=C/C(=O)N[C@@H](C)c1nc2scc(C)c2c(=O)o1` the figure was 330 nM; with `Cc1csc2nc([C@H](C)NC(=O)/C=C/c3ccccc3Br)oc(=O)c12`, 480 nM; with `Cc1csc2nc([C@H](C)NC(=O)C=C(c3ccccc3)c3ccccc3)oc(=O)c12`, 500 nM.
The same measure, in the same setting: with `Cc1csc2nc([C@H](C)NC(=O)/C=C/c3c(F)cccc3F)oc(=O)c12` the figure was 630 nM.
The compound `Cc1csc2nc([C@H](C)NC(=O)/C=C/c3ccc(Br)s3)oc(=O)c12` returned a PC50 in the assay on Human alphaherpesvirus 2 [1] of 8 µM. In addition, the TC50 in the assay with Human alphaherpesvirus 2 [2] is over 250000 nM. The results for the “K obs / 1” value in the assay on Human alphaherpesvirus 3 and in the assay on Human alphaherpesvirus 2 [4] were 63000 M⁻¹ s⁻¹ and 12000 M⁻¹ s⁻¹, respectively. In assay [3], this compound showed an IC50 of 270 nM. In the assay with MRC5, the CC50 was determined as 83000 nM.
Take `Cc1ccccc1/C=C/C(=O)N[C@@H](C)c1nc2scc(C)c2c(=O)o1`: the IC50 worked out at 20000 nM in the assay with Cytomegalovirus [6] and 1500 nM in assay [3].
The compound `Cc1csc2nc([C@H](C)NC(=O)/C=C/c3ccccc3Cl)oc(=O)c12` showed an IC50 in assay [3] of 610 nM.
Still for that read-out and setting: as for `CCOc1ccccc1/C=C/C(=O)N[C@@H](C)c1nc2scc(C)c2c(=O)o1`, the figure is 560 nM.
With `Cc1csc2nc([C@H](C)NC/C=C/c3ccccc3)oc(=O)c12`, the IC50 entry (in the assay on Human alphaherpesvirus 2 [10]; with Cytomegalovirus [11]; in assay [12]) was “No inhibition” each time.
In assay [3], `Cc1csc2nc([C@H](C)NC(=O)/C=C(\c3ccccc3)c3cccs3)oc(=O)c12` came in with an IC50 of 260 nM. This counts as sub-micromolar.
In the case of `Cc1csc2nc([C@H](C)NC(=O)/C=C/c3ccnc4ccccc34)oc(=O)c12`, the “K obs / 1” value with Human alphaherpesvirus 3 was 45000 M⁻¹ s⁻¹; with Human alphaherpesvirus 2 [4], 76000 M⁻¹ s⁻¹. This compound also returned an IC50 in assay [3] of 250 nM.
Compound `Cc1csc2nc([C@H](C)NC(=O)/C=C/c3ccccn3)oc(=O)c12` came in with an IC50 in assay [3] of 500 nM.
Same read-out and setting: with `Cc1csc2nc([C@H](C)NC(=O)/C=C/c3ccccc3[N+](=O)[O-])oc(=O)c12` the figure was 720 nM.

(Values after ChEMBL document CHEMBL1132395, “Inhibition of herpes proteases and antiviral activity of 2-substituted thieno[2,3-d]oxazinones” (Bioorg Med Chem Lett, 1999).)
